Patent US12138256B2, “Treatment of cardiopulmonary disorders” (Bayer Aktiengesellschaft, priority 2021, dated 2024)
“And” between values parts separate entries of the source, which are not always exact repeats. Equal values may be shown once.

Test system: hypoxia induced PAP increase in conscious dogs
Assay: Haemodynamics in conscious hypoxia challenged dogs (C-2.2)
Format: in vivo, dog
Design: PAP, absolute values for each animal: unit: mmHg
Conditions: for mPAP decrease during Hypoxia, each animal / mPAP decrease during Hypoxia, mean +/− SEM: n = 3
Experimental: Experiments were carried out in anesthetized Göttingen minipigs, anesthetized rats and conscious, telemetrically instrumented dogs. Acute pulmonary hypertension was induced for example by infusion of a thromboxane A2 analogon, by acute hypoxia treatment or hypoxia treatment over a number of weeks and/or by administration of monocrotaline. Test substances were applied via nebulization using the Nebutec® or Aeroneb® Pro nebulizer system, and/or by means of powder and/or solution applicators for experimental intratracheal administration (Liquid MicroSprayer®, Dry Powder Insufflator™, MicroSprayer®, Penn-Century Inc., Wyndmoor, PA, USA) or after solid nebulization inserted into the inspiration arm of the ventilation. Compounds were employed as solids or solutions depending on the molecular structure and the technical possibility depending on the experiment. The haemodynamic signals were recorded and evaluated by means of pressure transducers/amplifiers (Combitransducer B. Braun, Melsungen, Germany or CardioMEMS Inc., Atlanta, GA, USA) and Ponemah® or CardioMems® as data aquisition software. After long-term experiments (for example monocrotaline rat), it is also possible to carry out a histological evaluation.
We evaluated the lung-selectivity and duration of effects of comparative example 11 under conscious conditions, in another species, and under a more physiological stimulus for PAP increase. Dogs were exposed to hypoxia for 30 minutes to induce a hypoxia-mediated PAP increase and comparative example 11 (100 μg/kg nominal dose) was applied by inhalation 1, 5, 12, 16 and 24 hours before hypoxia.
The hypoxic dog model was also used to compare different drug candidates wrt duration of action under conscious conditions.

[1] = 100 μg/kg nominal dose inhaled, 1-2 h post inhalation
[2] = 100 μg/kg nominal dose inhaled, 5-6 h post inhalation
[3] = 100 μg/kg nominal dose inhaled, 12-13 h post inhalation
[4] = 100 μg/kg nominal dose inhaled, 16-17 h post inhalation
[5] = 100 μg/kg nominal dose inhaled, 24-25 h post inhalation

## O=C(O)c1ccc(CCN(CCc2cc(F)ccc2OCc2ccc(-c3nc4cc(Cl)ccc4o3)cc2)C2CCCc3nc(C(=O)O)ccc32)cc1 (single isomer, unassigned) [comparative example 4, 5-{[2-(4-Carboxyphenyl)ethyl][2-(2-{[4-(5-chloro-1,3-benzoxazol-2-yl)benzyl]oxy}-5-fluorophenyl)-ethyl]amino}-5,6,7,8-tetrahydroquinoline-2-carboxylic acid]
100 μg/kg nominal dose inhaled 1 h before hypoxia, time 4 min
  PAP, absolute values for each animal: 9 and 15 and 10
100 μg/kg nominal dose inhaled 1 h before hypoxia, time 6 min
  PAP, absolute values for each animal: 9 and 14 and 11
100 μg/kg nominal dose inhaled 1 h before hypoxia, time 8 min
  PAP, absolute values for each animal: 10 and 14 and 11
100 μg/kg nominal dose inhaled 16 h before hypoxia, time 22 min
  PAP, absolute values for each animal: 23 and 26 and 13
100 μg/kg nominal dose inhaled 16 h before hypoxia, time 24 min
  PAP, absolute values for each animal: 23 and 26 and 14
100 μg/kg nominal dose inhaled 16 h before hypoxia, time 26 min
  PAP, absolute values for each animal: 21 and 32 and 15
100 μg/kg nominal dose inhaled 16 h before hypoxia, time 28 min
  PAP, absolute values for each animal: 22 and 29 and 17
100 μg/kg nominal dose inhaled 16 h before hypoxia, time 30 min
  PAP, absolute values for each animal: 26 and 31 and 18
100 μg/kg nominal dose inhaled 16 h before hypoxia, time 32 min
  PAP, absolute values for each animal: 24 and 29 and 16
100 μg/kg nominal dose inhaled 16 h before hypoxia, time 34 min
  PAP, absolute values for each animal: 23 and 32 and 21
100 μg/kg nominal dose inhaled 16 h before hypoxia, time 36 min
  PAP, absolute values for each animal: 20 and 29 and 19
100 μg/kg nominal dose inhaled 16 h before hypoxia, time 38 min
  PAP, absolute values for each animal: 25 and 29 and 12
100 μg/kg nominal dose inhaled 16 h before hypoxia, time 40 min
  PAP, absolute values for each animal: 25 and 30 and 22
100 μg/kg nominal dose inhaled 16 h before hypoxia, time 42 min
  PAP, absolute values for each animal: 12 and 21 and 8
100 μg/kg nominal dose inhaled 16 h before hypoxia, time 44 min
  PAP, absolute values for each animal: 9 and 17 and 7
100 μg/kg nominal dose inhaled 16 h before hypoxia, time 46 min
  PAP, absolute values for each animal: 9 and 16 and 8
100 μg/kg nominal dose inhaled 16 h before hypoxia, time 48 min
  PAP, absolute values for each animal: 6 and 16 and 8
100 μg/kg nominal dose inhaled 16 h before hypoxia, time 50 min
  PAP, absolute values for each animal: 6 (2×) and 15
100 μg/kg nominal dose inhaled 24 h before hypoxia, time 0 min
  PAP, absolute values for each animal: 10 and 16 and 15
100 μg/kg nominal dose inhaled 24 h before hypoxia, time 2 min
  PAP, absolute values for each animal: 12 and 16 and 17
100 μg/kg nominal dose inhaled 24 h before hypoxia, time 4 min
  PAP, absolute values for each animal: 10 and 15 and 16
100 μg/kg nominal dose inhaled 24 h before hypoxia, time 6 min
  PAP, absolute values for each animal: 10 and 13 and 14
100 μg/kg nominal dose inhaled 24 h before hypoxia, time 8 min
  PAP, absolute values for each animal: 9 and 14 and 12
100 μg/kg nominal dose inhaled 24 h before hypoxia, time 10 min
  PAP, absolute values for each animal: 10 and 15 and 14
100 μg/kg nominal dose inhaled 24 h before hypoxia, time 12 min
  PAP, absolute values for each animal: 18 and 22 and 14
100 μg/kg nominal dose inhaled 24 h before hypoxia, time 14 min
  PAP, absolute values for each animal: 18 and 19 and 15
100 μg/kg nominal dose inhaled 24 h before hypoxia, time 16 min
  PAP, absolute values for each animal: 20 and 23 and 17
100 μg/kg nominal dose inhaled 24 h before hypoxia, time 18 min
  PAP, absolute values for each animal: 23 and 25 and 17
100 μg/kg nominal dose inhaled 24 h before hypoxia, time 20 min
  PAP, absolute values for each animal: 23 and 24 and 21
100 μg/kg nominal dose inhaled 24 h before hypoxia, time 22 min
  PAP, absolute values for each animal: 22 and 26 and 17
100 μg/kg nominal dose inhaled 24 h before hypoxia, time 24 min
  PAP, absolute values for each animal: 24 and 25 and 18
100 μg/kg nominal dose inhaled 24 h before hypoxia, time 26 min
  PAP, absolute values for each animal: 23 and 25 and 19
100 μg/kg nominal dose inhaled 24 h before hypoxia, time 28 min
  PAP, absolute values for each animal: 22 and 27 and 18
100 μg/kg nominal dose inhaled 24 h before hypoxia, time 30 min
  PAP, absolute values for each animal: 23
100 μg/kg nominal dose inhaled, up to 6 hrs after inhalation
  efficacy (PAP decrease), head to head: comparable efficacy
[1]
  mPAP decrease during Hypoxia, each animal: −11.69 mmHg and −10.19 mmHg and −11.38 mmHg
  mPAP decrease during Hypoxia, mean +/− SEM: −11.08 ± 0.46 mmHg
[2]
  mPAP decrease during Hypoxia, each animal: −14.81 mmHg and −6.69 mmHg and −8.00 mmHg
  mPAP decrease during Hypoxia, mean +/− SEM: −9.83 ± 2.52 mmHg
[3]
  mPAP decrease during Hypoxia, each animal: −0.50 mmHg and −4.63 mmHg and −0.56 mmHg
  mPAP decrease during Hypoxia, mean +/− SEM: −1.90 ± 1.36 mmHg
[4]
  mPAP decrease during Hypoxia, each animal: 0.81 mmHg and −0.56 mmHg and −1.06 mmHg
  mPAP decrease during Hypoxia, mean +/− SEM: −0.27 ± 0.56 mmHg
[5]
  mPAP decrease during Hypoxia, each animal: −2.56 mmHg and −3.13 mmHg and −2.25 mmHg
  mPAP decrease during Hypoxia, mean +/− SEM: −2.65 ± 0.26 mmHg
